Results reported in patent US20020055094A1 (priority 1996, published 2002).

How the values were obtained:
Format in all cases: binding
influenza A NWS/G70C = tested on: influenza A NWS/G70C
[1] = tested on: NWS/G70C influenza A virus
[2] = tested on: NWS/G70C influenza A virus; remark: listed apart in the source

5-acetamido-7-{6′-[6″-(6″′-biotinylaminocaproyl) -tri-amingcaroyl]-aminohexyl}-carbamoyloxy-4-guanidino -2,3,4,5-tetradeoxy-D-glycero-D-gaacto-non-2-enopyranosonic acid [Compound No. 26]
compound concentration giving the best results (influenza A NWS/G70C): 0.1 µM
virus amount readily detected (influenza A NWS/G70C): 2.5×10^5 pfu/well

CC(=O)N[C@H]1[C@H]([C@H](OC(=O)NCCCCCCNC(=O)NCCCCCCN)[C@H](O)CO)OC(C(=O)O)=C[C@@H]1NC(=N)N [Compound No. 8, 5-acetamido-7-[6′-(6″-aminohexylureido)-hexyl]-carbamoyloxy-4-guanidino-2,3,4,5-tetradeoxy-D-glycero-D-galacto-non-2-enopyranosonic acid]
signal in direct detection [1]: no signal at any concentration of virus

CC(=O)N[C@H]1[C@H]([C@H](OC(=O)NCCCCCCNC(=O)CNC(=O)CNC(=O)CNC(=O)CCCC[C@@H]2SC[C@@H]3NC(=O)N[C@@H]32)[C@H](O)CO)OC(C(=O)O)=C[C@@H]1NC(=N)N [Compound No. 21, 5-acetamido-7-(6′-biotinylamino-tricrlycinamido-hexy) -carbamoyloxy-4-guanidino-2,3,4,5-tetradeoxy-D-glycerQ-D-galacto-non-2-enopyranosonic acid]
minimum virus detectable [1]: about 10^5 virus particles per well
compound concentration giving the best result [2]: 0.01 µM
virus detection limit of captured complex [2]: ≤ 0.625×10^5 pfu
